From US11066447B2, “Aureobasidium derivatives and methods of synthesis” (AureoGen Biosciences, Inc., priority 2016, dated 2021)
Converted amounts (≈) assume the structure as drawn. Read-outs that look alike come from different tables or passages of the source. Numbered stars: 1 amine (or outer) side, 2 acyl side, 3 side chain; on linkers, the order of the positions; unused ones are H or OH. Square brackets hold non-standard residues; d marks the D form. Peptide text beside a SMILES is read from it. X13 = CN([C@@H](Cc1cccc(-c2ccc(N3CCN(C(=O)OC(C)(C)C)CC3)nc2)c1)C(=O)[*:2])[*:1]; X21 = CC1CCN(c2cc(-c3cccc(C[C@@H](C(=O)[*:2])N(C)[*:1])c3)ccn2)CC1; X15 = CN([C@@H](Cc1cccc(-c2ccc(N3CCOCC3)nc2)c1)C(=O)[*:2])[*:1]; X12 = CN(C)c1cc(-c2cccc(C[C@@H](C(=O)[*:2])N(C)[*:1])c2)ccn1; X17 = CN([C@@H](Cc1cccc(-c2cnc3ccccc3c2)c1)C(=O)[*:2])[*:1]; X22 = CN([C@@H](Cc1cccc(-c2cncc3ccccc23)c1)C(=O)[*:2])[*:1]; Hmp(2R,3S) = CC[C@H](C)[C@@H](O)C(=O)O; NMeVal(β-OH) = CN[C@H](C(=O)O)C(C)(C)O; NMeV = CN[C@H](C(=O)O)C(C)C

Key:
[1] = system: C. neoformans MMX 0634 ATCC 90112; assay: MIC assay (CLSI microdilution); format: cell-based; conditions: Cryptococcus neoformans, ATCC90112, RPMI plus 0.002% Tween-80; read-out: MIC
[2] = system: C. albicans MMX 2000 ATCC 10231; assay: MIC assay (CLSI microdilution); format: cell-based; conditions: Candida albicans, ATCC10231, RPMI plus 0.002% Tween-80; read-out: MIC
[3] = system: A. fumigatus from Aureogen; assay: MIC/MEC assay (CLSI microdilution); format: cell-based; conditions: Aspergillus fumigatus, 48 h; for minimal effective concentration: RPMI plus 0.002% Tween-80; for MIC: RPMI plus 0.002% Tween-80, read-out: MIC
Method in brief: (§1)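 Test agents were assayed by CLSI broth microdilution in Tween-80-supplemented (0.002%) RPMI-1640 against spore inocula of approximately 0.2-2.5×10^4 CFU/mL. Strain MMX 5280 was run both with and without Tween-80.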

[4] = system: A. niger MMX 0624 ATCC 16888; assay: MIC/MEC assay (CLSI microdilution); format: cell-based; conditions: for minimal effective concentration: RPMI plus 0.002% Tween-80, read-out: MEC
Method in brief: as §1

A. flavus MMX 5948 = assay: MIC/MEC assay (CLSI microdilution); format: cell-based; conditions: Aspergillus flavus, MMX5948, 48 h; for minimal effective concentration: RPMI plus 0.002% Tween-80; for MIC: RPMI plus 0.002% Tween-80, read-out: MIC
Method in brief: as §1

[5] = system: A. fumigatus MMX 6782 ATCC 13073; assay: MIC/MEC assay (CLSI microdilution); format: cell-based; conditions: Aspergillus fumigatus, ATCC13073, 48 h; for minimal effective concentration: RPMI plus 0.002% Tween-80, read-out: MEC; for MIC: RPMI plus 0.002% Tween-80, read-out: MIC
Method in brief: as §1

A. fumigatus MMX 5944 = assay: MIC/MEC assay (CLSI microdilution); format: cell-based; conditions: Aspergillus fumigatus, MMX5944, 48 h; for minimal effective concentration: RPMI plus 0.002% Tween-80; for MIC: RPMI plus 0.002% Tween-80, read-out: MIC
Method in brief: as §1

[6] = system: A. fumigatus MMX 6781 ATCC MYA-4609; assay: MIC/MEC assay (CLSI microdilution); format: cell-based; conditions: Aspergillus fumigatus; for MIC: 48 h, RPMI plus 0.002% Tween-80, read-out: MIC; for minimal effective concentration: RPMI plus 0.002% Tween-80, 48 hr
Method in brief: as §1

[7] = system: A. fumigatus MMX 5280 ATCC MYA-3626; assay: MIC/MEC assay (CLSI microdilution); format: cell-based, Aspergillus fumigatus; conditions: Aspergillus fumigatus, 48 h
Method in brief: as §1

[8] = system: C. parapsilosis MMX 2323 ATCC 22019; assay: MIC assay (CLSI microdilution); format: cell-based, Candida parapsilosis; conditions: read-out: MIC
Method in brief: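 Broth microdilution MIC testing of Candida parapsilosis ATCC 22019 followed CLSI methods in RPMI-1640, with or without 0.002% Tween-80. Yeast grown 48 hours at 35° C on Sabouraud dextrose agar was suspended to a 0.5 McFarland standard and diluted 1:100 to roughly 0.5-2.5×10^3 CFU/mL. The MIC was the lowest concentration preventing visible growth.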

[9] = Aspergillus niger, ATCC16888, 48 h
[10] = Aspergillus niger, ATCC16888, 48 h, RPMI plus 0.002% Tween-80, read-out: MIC
[11] = RPMI plus 0.002% Tween-80, read-out: MEC
[12] = RPMI plus 0.002% Tween-80, read-out: MIC
[13] = Without Tween-80, read-out: MEC
[14] = Without Tween-80, read-out: MIC
[15] = ATCC22019, RPMI plus 0.002% Tween-80
[16] = RPMI plus 0.002% Tween-80, 48 hr

Structure (SMILES) | MIC [1] [µg/mL] | MIC [2] [µg/mL] | MIC [3] [µg/mL] | MIC [4, 10] [µg/mL] | MIC (A. flavus MMX 5948) [µg/mL] | MIC [5] [µg/mL] | MIC (A. fumigatus MMX 5944) [µg/mL] | MIC [6] [µg/mL] | MIC [7, 12] [µg/mL] | MIC [7, 14] [µg/mL] | MIC [8, 15] [µg/mL] | MIC ([8]; ATCC22019, Without Tween-80) [µg/mL] | minimal effective concentration [3] [µg/mL] | minimal effective concentration [4, 9] [µg/mL] | minimal effective concentration (A. flavus MMX 5948) [µg/mL] | minimal effective concentration [5] [µg/mL] | minimal effective concentration (A. fumigatus MMX 5944) [µg/mL] | minimal effective concentration [6] [µg/mL] | minimal effective concentration [7, 11] [µg/mL] | minimal effective concentration [7, 13] [µg/mL] | other results
CC[C@H](C)[C@@H]1NC(=O)[C@@H]2CCCN2C(=O)[C@H](Cc2cccc(-c3ccnc(N(C)C)c3)c2)N(C)C(=O)[C@H](Cc2ccccc2)NC(=O)[C@H](C(C)C)N(C)C(=O)[C@@H]([C@@H](C)CC)OC(=O)[C@H](C(C)(C)O)N(C)C(=O)[C@H](CC(C)C)NC(=O)[C@H](C(C)C)N(C)C1=O [Compound 22] (cyclo(F[X12]PI[NMeV]L[NMeVal(β-OH)][Hmp(2R,3S)][NMeV])) | 0.25 | 0.03 | > 64 | 0.5 | > 64 | > 64 | > 64 | > 64 | > 64 | > 64 | 0.06 | 1 (≈ 0.819 µM) | > 64 | 0.25 | > 64 | > 64 | > 64 | > 64 | > 64 | > 64 | –
CC[C@H](C)[C@@H]1NC(=O)[C@@H]2CCCN2C(=O)[C@H](Cc2cccc(-c3ccnc(N4CCC(C)CC4)c3)c2)N(C)C(=O)[C@H](Cc2ccccc2)NC(=O)[C@H](C(C)C)N(C)C(=O)[C@@H]([C@@H](C)CC)OC(=O)[C@H](C(C)(C)O)N(C)C(=O)[C@H](CC(C)C)NC(=O)[C@H](C(C)C)N(C)C1=O [Compound 23] (cyclo(F[X21]PI[NMeV]L[NMeVal(β-OH)][Hmp(2R,3S)][NMeV])) | 0.25 | 0.06 | > 64 | 0.25 | > 64 | > 64 | > 64 | > 64 | > 64 | > 64 | 0.12 | 1 (≈ 0.784 µM) | > 64 | 0.12 | > 64 | > 64 | > 64 | > 64 | > 64 | > 64 | –
CC[C@H](C)[C@@H]1NC(=O)[C@@H]2CCCN2C(=O)[C@H](Cc2cccc(-c3ccc(N4CCOCC4)nc3)c2)N(C)C(=O)[C@H](Cc2ccccc2)NC(=O)[C@H](C(C)C)N(C)C(=O)[C@@H]([C@@H](C)CC)OC(=O)[C@H](C(C)(C)O)N(C)C(=O)[C@H](CC(C)C)NC(=O)[C@H](C(C)C)N(C)C1=O [Compound 24] (cyclo(F[X15]PI[NMeV]L[NMeVal(β-OH)][Hmp(2R,3S)][NMeV])) | 0.5 | 0.03 | > 64 | 0.25 | 0.5 | > 64 | > 64 | > 64 | > 64 | > 64 | 0.12 | 1 (≈ 0.791 µM) | > 64 | 0.25 | 0.25 | > 64 | > 64 | > 64 | > 64 | > 64 | –

The next lines start with results.

MIC [1] [µg/mL] | MIC [2] [µg/mL] | MIC [3] [µg/mL] | MIC [4, 10] [µg/mL] | MIC (A. flavus MMX 5948) [µg/mL] | MIC [5] [µg/mL] | MIC (A. fumigatus MMX 5944) [µg/mL] | MIC [6] [µg/mL] | MIC [7, 12] [µg/mL] | MIC [7, 14] [µg/mL] | MIC [8, 15] [µg/mL] | MIC ([8]; ATCC22019, Without Tween-80) [µg/mL] | Structure (SMILES) | minimal effective concentration [3] [µg/mL] | minimal effective concentration [4, 9] [µg/mL] | minimal effective concentration (A. flavus MMX 5948) [µg/mL] | minimal effective concentration [5] [µg/mL] | minimal effective concentration (A. fumigatus MMX 5944) [µg/mL] | minimal effective concentration [6] [µg/mL] | minimal effective concentration [7, 11] [µg/mL] | minimal effective concentration [7, 13] [µg/mL] | other results
0.25 | 0.12 | > 64 | – | > 64 | > 64 | > 64 | > 64 | > 64 | > 64 | 1 | 2 (≈ 1.47 µM) | CC[C@H](C)[C@@H]1NC(=O)[C@@H]2CCCN2C(=O)[C@H](Cc2cccc(-c3ccc(N4CCN(C(=O)OC(C)(C)C)CC4)nc3)c2)N(C)C(=O)[C@H](Cc2ccccc2)NC(=O)[C@H](C(C)C)N(C)C(=O)[C@@H]([C@@H](C)CC)OC(=O)[C@H](C(C)(C)O)N(C)C(=O)[C@H](CC(C)C)NC(=O)[C@H](C(C)C)N(C)C1=O [Compound 26] (cyclo(F[X13]PI[NMeV]L[NMeVal(β-OH)][Hmp(2R,3S)][NMeV])) | > 64 | – | > 64 | > 64 | > 64 | > 64 | > 64 | > 64 | MEC [4, 16]: 2/2 μg/mL; MIC [4, 16]: 2/2 μg/mL
0.12 | 0.015 | > 64 | 0.06 | 0.5 | > 64 | > 64 | > 64 | > 64 | > 64 | 0.12 | 1 (≈ 0.814 µM) | CC[C@H](C)[C@@H]1NC(=O)[C@@H]2CCCN2C(=O)[C@H](Cc2cccc(-c3cnc4ccccc4c3)c2)N(C)C(=O)[C@H](Cc2ccccc2)NC(=O)[C@H](C(C)C)N(C)C(=O)[C@@H]([C@@H](C)CC)OC(=O)[C@H](C(C)(C)O)N(C)C(=O)[C@H](CC(C)C)NC(=O)[C@H](C(C)C)N(C)C1=O [Compound 27] (cyclo(F[X17]PI[NMeV]L[NMeVal(β-OH)][Hmp(2R,3S)][NMeV])) | > 64 | 0.06 | 0.12 | > 64 | > 64 | > 64 | > 64 | > 64 | –
0.06 | 0.008 | > 64 | 0.12 | > 64 | > 64 | > 64 | > 64 | > 64 | > 64 | 0.06 | 1 (≈ 0.814 µM) | CC[C@H](C)[C@@H]1NC(=O)[C@@H]2CCCN2C(=O)[C@H](Cc2cccc(-c3cncc4ccccc34)c2)N(C)C(=O)[C@H](Cc2ccccc2)NC(=O)[C@H](C(C)C)N(C)C(=O)[C@@H]([C@@H](C)CC)OC(=O)[C@H](C(C)(C)O)N(C)C(=O)[C@H](CC(C)C)NC(=O)[C@H](C(C)C)N(C)C1=O [Compound 29] (cyclo(F[X22]PI[NMeV]L[NMeVal(β-OH)][Hmp(2R,3S)][NMeV])) | > 64 | 0.12 | > 64 | – | > 64 | > 64 | > 64 | > 64 | –
